Results taken from ChEMBL document CHEMBL4507268 (2021).

Legend:
Settings in all cases: Compound concentration 1000.0 nM
[1] = target: Serine/threonine-protein kinase PknB (Mycobacterium tuberculosis) (UniProt P9WI81)
[2] = target: Serine/threonine-protein kinase Nek6 (Homo sapiens) (UniProt Q9HC98)
[3] = target: Dual specificity protein kinase CLK2 (Homo sapiens) (UniProt P49760)
[4] = target: T1, Discoidin domain-containing receptor 2 (Homo sapiens) (UniProt Q16832)
T1 sequence (whole entry): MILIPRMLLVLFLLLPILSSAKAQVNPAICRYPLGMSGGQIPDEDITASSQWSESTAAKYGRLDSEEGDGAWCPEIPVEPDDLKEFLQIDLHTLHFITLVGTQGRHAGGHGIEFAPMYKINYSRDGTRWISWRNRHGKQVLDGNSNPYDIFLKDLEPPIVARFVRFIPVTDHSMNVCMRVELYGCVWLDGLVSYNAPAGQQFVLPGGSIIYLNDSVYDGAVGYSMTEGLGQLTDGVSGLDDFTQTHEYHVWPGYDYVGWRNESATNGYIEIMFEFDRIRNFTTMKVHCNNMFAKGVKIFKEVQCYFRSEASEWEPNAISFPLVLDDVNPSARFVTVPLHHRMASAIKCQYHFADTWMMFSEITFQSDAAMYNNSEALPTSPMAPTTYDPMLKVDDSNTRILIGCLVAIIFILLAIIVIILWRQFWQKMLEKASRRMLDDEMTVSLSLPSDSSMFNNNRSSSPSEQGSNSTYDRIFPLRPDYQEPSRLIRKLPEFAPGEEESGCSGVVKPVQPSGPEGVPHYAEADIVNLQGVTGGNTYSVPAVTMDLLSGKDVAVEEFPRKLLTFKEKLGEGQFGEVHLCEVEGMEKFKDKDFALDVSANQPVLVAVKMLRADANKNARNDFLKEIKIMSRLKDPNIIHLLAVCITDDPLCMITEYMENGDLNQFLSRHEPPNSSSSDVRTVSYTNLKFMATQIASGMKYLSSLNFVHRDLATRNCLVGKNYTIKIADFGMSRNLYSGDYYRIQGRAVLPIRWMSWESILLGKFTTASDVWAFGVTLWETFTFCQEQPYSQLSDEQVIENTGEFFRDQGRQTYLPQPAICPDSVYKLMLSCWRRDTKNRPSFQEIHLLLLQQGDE

[5] = target: Casein kinase II subunit alpha (Homo sapiens) (UniProt P68400)
Casein kinase II subunit alpha (Homo sapiens), sequence (P68400 whole entry, looked up): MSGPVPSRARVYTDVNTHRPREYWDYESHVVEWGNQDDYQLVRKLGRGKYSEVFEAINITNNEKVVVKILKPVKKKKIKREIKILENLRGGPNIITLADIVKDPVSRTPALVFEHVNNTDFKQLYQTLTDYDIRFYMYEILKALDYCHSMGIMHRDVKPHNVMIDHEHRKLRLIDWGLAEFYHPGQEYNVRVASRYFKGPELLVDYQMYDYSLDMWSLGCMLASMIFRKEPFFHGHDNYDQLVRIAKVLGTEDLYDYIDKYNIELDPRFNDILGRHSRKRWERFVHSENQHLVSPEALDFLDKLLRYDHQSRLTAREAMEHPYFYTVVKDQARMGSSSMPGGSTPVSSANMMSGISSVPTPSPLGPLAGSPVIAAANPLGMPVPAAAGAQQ

[6] = target: T2, Serine/threonine-protein kinase TAO1 (Homo sapiens) (UniProt Q7L7X3)
T2 sequence (whole entry): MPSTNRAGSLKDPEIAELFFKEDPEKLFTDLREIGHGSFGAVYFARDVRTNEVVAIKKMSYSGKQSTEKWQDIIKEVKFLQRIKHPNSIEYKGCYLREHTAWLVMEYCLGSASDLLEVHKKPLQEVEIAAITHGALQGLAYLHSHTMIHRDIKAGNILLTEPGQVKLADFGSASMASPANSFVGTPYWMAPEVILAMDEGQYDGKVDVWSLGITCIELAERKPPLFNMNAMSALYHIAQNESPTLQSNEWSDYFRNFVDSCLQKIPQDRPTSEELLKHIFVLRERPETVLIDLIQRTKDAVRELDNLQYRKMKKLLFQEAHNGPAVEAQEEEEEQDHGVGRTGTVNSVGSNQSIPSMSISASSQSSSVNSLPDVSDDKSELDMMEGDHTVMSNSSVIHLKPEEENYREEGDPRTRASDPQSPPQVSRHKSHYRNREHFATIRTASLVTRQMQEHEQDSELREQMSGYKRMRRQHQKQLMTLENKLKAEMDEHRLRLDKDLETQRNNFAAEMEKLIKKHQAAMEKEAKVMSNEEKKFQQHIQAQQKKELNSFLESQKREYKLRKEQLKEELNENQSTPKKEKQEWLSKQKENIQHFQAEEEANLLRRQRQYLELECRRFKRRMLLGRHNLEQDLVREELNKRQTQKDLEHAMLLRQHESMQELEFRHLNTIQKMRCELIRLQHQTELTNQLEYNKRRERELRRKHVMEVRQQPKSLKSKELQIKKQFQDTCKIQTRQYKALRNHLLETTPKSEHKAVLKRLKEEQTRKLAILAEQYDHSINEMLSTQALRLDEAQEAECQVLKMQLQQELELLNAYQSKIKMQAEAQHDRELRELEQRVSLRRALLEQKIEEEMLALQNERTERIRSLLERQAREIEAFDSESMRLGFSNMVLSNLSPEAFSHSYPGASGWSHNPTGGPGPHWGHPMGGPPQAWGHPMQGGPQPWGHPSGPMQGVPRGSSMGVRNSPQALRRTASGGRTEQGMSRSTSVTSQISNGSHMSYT

[7] = target: Calcium/calmodulin-dependent protein kinase type II subunit beta (Homo sapiens) (UniProt Q13554)
Calcium/calmodulin-dependent protein kinase type II subunit beta (Homo sapiens), sequence (Q13554 whole entry): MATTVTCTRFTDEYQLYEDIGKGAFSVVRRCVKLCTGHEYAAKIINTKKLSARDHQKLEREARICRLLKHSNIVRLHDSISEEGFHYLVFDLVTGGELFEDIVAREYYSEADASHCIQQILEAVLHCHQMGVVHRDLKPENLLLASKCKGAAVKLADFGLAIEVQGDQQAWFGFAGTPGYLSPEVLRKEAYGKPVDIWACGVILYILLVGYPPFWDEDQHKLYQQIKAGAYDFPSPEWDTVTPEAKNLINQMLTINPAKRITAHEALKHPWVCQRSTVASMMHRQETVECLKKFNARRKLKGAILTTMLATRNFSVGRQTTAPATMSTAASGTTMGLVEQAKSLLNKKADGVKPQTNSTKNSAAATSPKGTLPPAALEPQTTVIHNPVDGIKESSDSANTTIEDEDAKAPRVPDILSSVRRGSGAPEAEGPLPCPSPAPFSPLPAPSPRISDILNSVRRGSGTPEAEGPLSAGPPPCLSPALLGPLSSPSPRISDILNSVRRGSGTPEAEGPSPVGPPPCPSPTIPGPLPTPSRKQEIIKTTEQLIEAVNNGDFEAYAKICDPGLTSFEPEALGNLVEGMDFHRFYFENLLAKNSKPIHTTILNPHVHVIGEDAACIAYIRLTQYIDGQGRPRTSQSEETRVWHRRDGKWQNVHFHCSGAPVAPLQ

[8] = target: Receptor tyrosine-protein kinase erbB-4 (Homo sapiens) (UniProt Q15303)
Receptor tyrosine-protein kinase erbB-4 (Homo sapiens), sequence (Q15303 whole entry): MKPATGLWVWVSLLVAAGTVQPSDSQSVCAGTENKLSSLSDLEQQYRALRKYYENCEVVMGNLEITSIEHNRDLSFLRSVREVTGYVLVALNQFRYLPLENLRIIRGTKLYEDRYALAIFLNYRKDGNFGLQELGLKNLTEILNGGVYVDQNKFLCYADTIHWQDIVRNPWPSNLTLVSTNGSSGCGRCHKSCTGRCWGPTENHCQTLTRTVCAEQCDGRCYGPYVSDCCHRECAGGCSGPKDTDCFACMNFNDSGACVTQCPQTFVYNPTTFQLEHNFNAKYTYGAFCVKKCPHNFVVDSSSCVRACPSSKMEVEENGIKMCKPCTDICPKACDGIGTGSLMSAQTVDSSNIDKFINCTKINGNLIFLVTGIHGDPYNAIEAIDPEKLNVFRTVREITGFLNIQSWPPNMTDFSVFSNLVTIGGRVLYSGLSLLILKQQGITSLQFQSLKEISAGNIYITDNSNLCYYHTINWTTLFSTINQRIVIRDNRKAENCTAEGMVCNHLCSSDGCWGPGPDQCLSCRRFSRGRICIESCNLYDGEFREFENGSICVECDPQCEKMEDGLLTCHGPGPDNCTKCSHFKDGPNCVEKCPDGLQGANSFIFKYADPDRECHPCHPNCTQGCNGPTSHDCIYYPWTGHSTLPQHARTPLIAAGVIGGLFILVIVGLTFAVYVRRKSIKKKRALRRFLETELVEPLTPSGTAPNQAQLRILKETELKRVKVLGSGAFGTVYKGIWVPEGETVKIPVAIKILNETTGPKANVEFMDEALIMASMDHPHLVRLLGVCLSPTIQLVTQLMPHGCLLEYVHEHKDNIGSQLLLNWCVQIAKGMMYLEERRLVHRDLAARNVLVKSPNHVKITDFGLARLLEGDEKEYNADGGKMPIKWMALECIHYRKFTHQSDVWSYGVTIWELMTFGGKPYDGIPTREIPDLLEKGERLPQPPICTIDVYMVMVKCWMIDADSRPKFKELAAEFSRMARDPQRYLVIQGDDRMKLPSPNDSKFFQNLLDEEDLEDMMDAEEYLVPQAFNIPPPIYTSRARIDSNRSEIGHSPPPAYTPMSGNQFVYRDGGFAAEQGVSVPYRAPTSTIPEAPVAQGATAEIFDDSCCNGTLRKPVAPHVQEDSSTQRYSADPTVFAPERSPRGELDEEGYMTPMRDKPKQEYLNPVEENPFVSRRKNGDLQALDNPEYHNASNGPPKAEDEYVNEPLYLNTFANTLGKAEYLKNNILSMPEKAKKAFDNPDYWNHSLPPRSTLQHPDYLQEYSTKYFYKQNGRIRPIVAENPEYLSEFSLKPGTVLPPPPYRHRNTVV

[9] = target: T3, NUAK family SNF1-like kinase 2 (Homo sapiens) (UniProt Q9H093)
T3 sequence (whole entry): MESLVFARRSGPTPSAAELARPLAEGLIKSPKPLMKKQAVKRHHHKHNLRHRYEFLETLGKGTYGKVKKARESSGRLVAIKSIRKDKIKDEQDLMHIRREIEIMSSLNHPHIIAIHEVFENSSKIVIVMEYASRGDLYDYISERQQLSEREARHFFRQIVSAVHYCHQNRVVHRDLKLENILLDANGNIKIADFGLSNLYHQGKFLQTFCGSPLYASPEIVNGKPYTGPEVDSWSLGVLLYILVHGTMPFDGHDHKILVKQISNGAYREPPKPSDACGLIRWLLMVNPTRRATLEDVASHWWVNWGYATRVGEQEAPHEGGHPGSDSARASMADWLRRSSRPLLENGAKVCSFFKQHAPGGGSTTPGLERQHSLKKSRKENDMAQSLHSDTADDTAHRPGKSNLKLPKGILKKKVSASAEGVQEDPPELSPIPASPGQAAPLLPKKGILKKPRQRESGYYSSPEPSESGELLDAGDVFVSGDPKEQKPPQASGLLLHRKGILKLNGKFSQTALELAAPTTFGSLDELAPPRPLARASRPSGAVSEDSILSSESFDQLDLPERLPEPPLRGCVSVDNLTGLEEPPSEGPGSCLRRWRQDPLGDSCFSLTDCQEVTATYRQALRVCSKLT

Measured: residual activity

Serine/threonine-protein kinase PknB (Mycobacterium tuberculosis), sequence (P9WI81 whole entry): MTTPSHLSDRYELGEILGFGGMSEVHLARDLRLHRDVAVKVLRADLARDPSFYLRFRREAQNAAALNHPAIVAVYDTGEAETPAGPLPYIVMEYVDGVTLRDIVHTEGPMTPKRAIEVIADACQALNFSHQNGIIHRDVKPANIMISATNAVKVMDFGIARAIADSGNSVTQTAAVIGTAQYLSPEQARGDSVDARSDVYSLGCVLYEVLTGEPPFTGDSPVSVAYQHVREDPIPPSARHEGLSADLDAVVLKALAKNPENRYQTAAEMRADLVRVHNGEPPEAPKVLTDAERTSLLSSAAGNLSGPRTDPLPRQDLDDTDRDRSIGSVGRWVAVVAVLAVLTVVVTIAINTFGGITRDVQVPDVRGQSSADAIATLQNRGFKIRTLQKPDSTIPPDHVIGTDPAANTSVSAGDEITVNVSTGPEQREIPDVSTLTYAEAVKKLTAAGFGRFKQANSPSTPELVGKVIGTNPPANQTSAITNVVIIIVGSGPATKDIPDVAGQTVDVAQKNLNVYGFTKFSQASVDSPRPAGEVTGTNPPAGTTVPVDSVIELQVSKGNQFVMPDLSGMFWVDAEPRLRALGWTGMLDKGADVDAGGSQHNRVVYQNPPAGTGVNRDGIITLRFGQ
Dual specificity protein kinase CLK2 (Homo sapiens), sequence (P49760 whole entry, looked up, the tested form may be a part): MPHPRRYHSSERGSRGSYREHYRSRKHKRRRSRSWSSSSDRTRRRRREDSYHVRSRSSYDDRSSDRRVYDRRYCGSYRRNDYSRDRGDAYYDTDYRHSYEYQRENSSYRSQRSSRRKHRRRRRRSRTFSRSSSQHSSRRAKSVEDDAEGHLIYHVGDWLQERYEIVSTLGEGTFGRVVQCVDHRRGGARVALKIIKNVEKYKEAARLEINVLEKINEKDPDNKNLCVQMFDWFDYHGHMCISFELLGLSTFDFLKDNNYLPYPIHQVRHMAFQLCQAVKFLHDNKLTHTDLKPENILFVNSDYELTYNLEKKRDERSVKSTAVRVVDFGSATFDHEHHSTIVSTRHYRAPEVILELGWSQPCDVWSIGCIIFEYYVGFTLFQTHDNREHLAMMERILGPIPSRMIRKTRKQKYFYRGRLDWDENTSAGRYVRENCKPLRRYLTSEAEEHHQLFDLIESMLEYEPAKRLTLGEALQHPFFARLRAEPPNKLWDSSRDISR
Serine/threonine-protein kinase Nek6 (Homo sapiens), sequence (Q9HC98 whole entry): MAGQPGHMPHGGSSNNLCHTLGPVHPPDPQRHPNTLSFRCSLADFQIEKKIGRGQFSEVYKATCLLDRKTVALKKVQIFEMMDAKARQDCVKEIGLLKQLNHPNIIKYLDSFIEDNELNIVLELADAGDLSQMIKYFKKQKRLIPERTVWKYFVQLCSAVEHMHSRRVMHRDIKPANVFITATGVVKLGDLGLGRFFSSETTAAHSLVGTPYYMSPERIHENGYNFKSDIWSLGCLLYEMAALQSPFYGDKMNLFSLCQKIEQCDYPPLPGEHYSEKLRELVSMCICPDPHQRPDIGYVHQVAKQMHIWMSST

Cc1nc(C2CCN(C(=O)c3ccc(OC(F)(F)F)cc3N)CC2)c2ncc(N3CCN(C)CC3)cc2n1 [BAY-693]
inactive: [1] 100% | [2] 100% | [3] 100% | [4] 92% | [5] 99% | [6] 100% | [7] 100% | [8] 100% | [9] 81%

CN1CCN(c2cnc3c(C4CCN(C(=O)c5ccc(OC(F)(F)F)cc5N)CC4)ncnc3c2)CC1 [BAY-885]
inactive: [1] 97% | [2] 92% | [3] 100% | [4] 100% | [5] 100% | [6] 100% | [7] 100% | [8] 79% | [9] 90%
